How the values were obtained:
Nicotiana benthamiana = assay: Test Example 6: growth promotion under low-temperature stress by hydroponics of Nicotiana benthamiana, 0.1 ppm; type: in vivo; conditions: 0.1 ppm in medium, low-temperature stress 7 days at 1.5±1.0° C., green leaf area 3 days later, equation (1)
In short: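 Seeds grown in half-strength Murashige–Skoog medium (pH 5.8), compound at 0.1 ppm (0.1% DMSO), 7 days at 22 °C, 4,000 lux, 16 h day; then 7 days at 1.5±1.0 °C, 2,000 lux; then 3 days recovery at 22 °C. Green leaf area imaged; relative leaf area versus DMSO controls before and after cold, ≥5 scored as mitigating.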

[1] = system: Rice (variety: Nipponbare); assay: Test Example 3: promotion of root growth by hydroponics of rice, 0.1 ppm; type: in vivo; conditions: Oryza sativa, hydroponic solution containing the test compound at 0.1 ppm, average of 4 or 5 individuals, read-out: Relative value of length of seminal root (%-untreated control plot)
In short: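 Surface-sterilised Nipponbare seeds were germinated 3 days in the dark at 28 °C in ¼-strength Hoagland solution containing 0.1 ppm compound; DMSO-only solution served as control. Seedlings were then grown 3 days hydroponically at 26 °C, 4,000 lux, 16 h day. Seminal root length was measured and averaged over 4–5 plants.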

| Structure (SMILES) | relative leaf area (% of untreated control) at 0.1 ppm (Nicotiana benthamiana) | change in vivo at 0.1 ppm [1] |
| --- | --- | --- |
| O=C(O)c1nc2c(F)cc(F)cc2s1 [Compound 86] | ≥ 5% | – |
| CCOC(=O)c1cc2c(C(F)(F)F)cccc2o1 [Compound 44] | – | > 5% |
| COC(=O)c1oc2ccc(C(F)(F)F)cc2c1NC(=O)C(F)(F)F [Compound 65] | ≥ 5% | – |
| O=C(Nc1ccccc1)c1cc2cc(C(F)(F)F)ccc2o1 [Compound 53] | ≥ 5% | > 5% |
| CCOC(=O)c1oc2cccc(O)c2c1C [Compound 80] | ≥ 5% | > 5% |
| NC(=O)c1oc2ccccc2c1C(F)(F)F [Compound 85] | ≥ 5% | – |
| COC(=O)c1oc2ccc(C(F)(F)F)cc2c1NC(C)=O [Compound 63] | ≥ 5% | – |
| Cc1c(C(=O)O)oc2ccccc12 [Compound 36] | ≥ 5% | > 5% |
| COC(=O)c1oc2ccccc2c1N(C(C)=O)C(C)=O [Compound 41] | – | > 5% |
| NC(=O)c1cc2cc(C(F)(F)F)ccc2o1 [Compound 51] | – | > 5% |
| COC(=O)c1oc2ccccc2c1C(F)(F)F [Compound 83] | – | > 5% |
| CNC(=O)c1oc2ccc(C(F)(F)F)cc2c1C(F)(F)F [Compound 75] | – | > 5% |
| CCOC(=O)c1oc2ccc(C(F)(F)F)cc2c1C(F)(F)F [Compound 71] | ≥ 5% | > 5% |
| COC(=O)c1oc2ccc(C(F)(F)F)cc2c1C(F)(F)F [Compound 70] | ≥ 5% | – |
| NC(=O)c1oc2ccc(C(F)(F)F)cc2c1C(F)(F)F [Compound 74] | ≥ 5% | > 5% |
| COC(=O)c1oc2ccccc2c1NC(C)=O [Compound 40] | – | > 5% |
| O=C(OCc1ccccc1)c1cc2cc(C(F)(F)F)ccc2o1 [Compound 56] | ≥ 5% | > 5% |
| COC(=O)c1oc2ccc(C(F)(F)F)cc2c1N(C)C [Compound 62] | ≥ 5% | – |
| O=C(OCc1ccccc1)c1oc2ccc(C(F)(F)F)cc2c1C(F)(F)F [Compound 73] | ≥ 5% | > 5% |

| Structure (SMILES) | relative leaf area (% of untreated control) at 0.1 ppm (Nicotiana benthamiana) | change in vivo at 0.1 ppm [1] |
| --- | --- | --- |
| COC(=O)c1oc2ccc(C(F)(F)F)cc2c1C [Compound 33] | – | > 5% |
| O=C(O)c1cc2cc(Br)ccc2o1 [Compound 79] | ≥ 5% | > 5% |
| O=C(NCc1ccccc1)c1cc2cc(C(F)(F)F)ccc2o1 [Compound 54] | ≥ 5% | > 5% |
| COC(=O)c1cc2c(C(F)(F)F)cccc2o1 [Compound 45] | ≥ 5% | > 5% |
| O=C(NCc1ccccc1)c1oc2ccc(C(F)(F)F)cc2c1C(F)(F)F [Compound 77] | ≥ 5% | – |
| O=C(Oc1ccccc1)c1cc2cc(C(F)(F)F)ccc2o1 [Compound 55] | – | > 5% |
| CNC(=O)c1cc2cc(C(F)(F)F)ccc2o1 [Compound 52] | ≥ 5% | > 5% |
| COC(=O)c1oc2ccc(C(F)(F)F)cc2c1N(C(C)=O)C(C)=O [Compound 64] | ≥ 5% | > 5% |
| COC(=O)c1oc2ccc(C(F)(F)F)cc2c1NS(=O)(=O)c1ccccc1 [Compound 68] | ≥ 5% | > 5% |
| COC(=O)c1oc2ccccc2c1C [Compound 37] | – | > 5% |
| COC(=O)c1oc2ccccc2c1NC(=O)C(F)(F)F [Compound 39] | ≥ 5% | – |
| COC(=O)c1cc2cc(C(F)(F)F)ccc2o1 [Compound 3, methyl 5-(trifluoromethyl)benzofuran-2-carboxylate] | ≥ 5% | – |
| COC(=O)c1oc2ccc(C(F)(F)F)cc2c1NS(C)(=O)=O [Compound 67] | – | > 5% |
| Cc1c(C(=O)O)oc2ccc(C(F)(F)F)cc12 [Compound 34] | – | > 5% |
| O=C(O)c1cc2c(C(F)(F)F)cccc2o1 [Compound 43] | ≥ 5% | > 5% |
| O=C(O)c1oc2ccc(C(F)(F)F)cc2c1C(F)(F)F [Compound 69] | ≥ 5% | – |
| O=C(Nc1ccccc1)c1oc2ccc(C(F)(F)F)cc2c1C(F)(F)F [Compound 76] | ≥ 5% | > 5% |
| COC(=O)c1oc2ccc(C(F)(F)F)cc2c1O [Compound 50] | ≥ 5% | > 5% |
